Experimental data from US6838436B1, “Inhibitors of proteasomal activity for stimulating bone growth” (Osteoscreen Inc., priority 1998, dated 2005).
Read-outs that look alike come from different tables or passages of the source. Where a SMILES comes first, the peptide text is derived from it. [ ]: non-standard residue; d: D form. The star is where a group is joined. Nva = CCC[C@H](N)C(=O)O; Cbz = O=C(OCc1ccccc1)*; OtBu = CC(C)(C)O*

Key:
[1] = system: hair follicles; assay: Hair follicle number after injection over the calvaria (Example 8); assay type: in vivo, Swiss ICR mice; conditions: for number of hair follicles: administered in the same way
Excerpt: The assay described above to assess the effect of compounds on calvarial bone growth can also be used to assess the ability of compounds to stimulate hair growth. The test compound or appropriate control vehicle is applied to the upper and lower back of male ICR Swiss white mice either topically or by subcutaneous injection. The vehicle is selected as appropriate for the compound to be tested and for the route of administration. Optionally, the hair in the test area may be removed prior to administration. After a suitable interval, typically 7 days, the mice are anesthetized and a biopsy of the dorsal treatment area is taken using a 6 mm dermal punch. The specimens are fixed in 10% buffered formalin and imbedded in paraffin wax, and sectioned and stained to observe hair follicles. In addition, photography can be used to observe and record hair growth; typically such growth is observed after 14-18 days. After a suitable interval, typically 21 days, the animals may be euthanized and the hair analyzed for fiber analysis and the tissue from the treatment area analyzed for quantitation of hair follicles.
In more detail, male ICR Swiss white mice, aged 4-6 weeks and weighing 13-26 gm, are employed, using 4-5 mice per group. The calvarial bone growth assay is performed as described above. Briefly, the test compound or appropriate control vehicle is injected into the subcutaneous tissue over the right calvaria of normal mice. Typically, the control vehicle is the vehicle in which the compound was solubilized, and is PBS containing 5% DMSO or is PBS containing Tween (2 μl/10 ml). The animals are sacrificed on day 14 and bone growth measured by histomorphometry. Bone samples for quantitation are cleaned from adjacent tissues and fixed in 10% buffered formalin for 24-48 hours, decalcified in 14% EDTA for 1-3 weeks, processed through graded alcohols; and embedded in paraffin wax. Three to five […] sections of the calvaria are prepared, and representative sections are selected for histomorphometric assessment of the effects on bone formation and bone resorption. Sections are measured by using a camera lucida attachment to trace directly the microscopic image onto a digitizing plate. Bone changes are measured on sections cut 200 μm apart, over 4 adjacent 1×1 mm fields on both the injected and noninjected sides of the calvaria. New bone is identified by its characteristic woven structure, and osteoclasts and osteoblasts are identified by their distinctive morphology. Histomorphometry software (OsteoMeasure, Osteometrix, Inc., Atlanta) is used to process digitizer input to determine cell counts and measure areas or perimeters.
The in vivo bone calvarial growth assay of Example 3 was modified to observe the number of hair follicles in treated mice. […]

[2] = system: neonatal mouse calvaria; assay: Neonatal mouse calvaria assay (in vitro / ex vivo) for bone formation; assay type: cell-based, ICR Swiss white mouse; conditions: for EC50: read-out: Bone Formation (ED50-μM)
Description: An assay for bone resorption or bone formation is similar to that described by Gowen M. & Mundy G., J Immunol (1986) 136:2478-82. Briefly, four days after birth, the front and parietal bones of ICR Swiss white mouse pups are removed by microdissection and split along the sagittal suture. In an assay for resorption, the bones are incubated in BGJb medium (Irvine Scientific, Santa Ana, Calif.) plus 0.02% (or lower concentration) β-methylcyclodextrin, wherein the medium also contains test or control substances. The medium used when the assay is conducted to assess bone formation is Fitton and Jackson Modified BGJ Medium (Sigma) supplemented with 6 μg/ml insulin, 6 μg/ml transferrin, 6 ng/ml selenous acid, calcium and phosphate concentrations of 1.25 and 3.0 mM, respectively, and ascorbic acid to a concentration of 100 μg/ml is added every two days. The incubation is conducted at 37° C. in a humidified atmosphere of 5% CO2 and 95% air for 96 hours.
Following this, the bones are removed from the incubation media and fixed in 10% buffered formalin for 24-48 hours, decalcified in 14% EDTA for 1 week, processed through graded alcohols; and embedded in paraffin wax. Three […] sections of the calvaria are prepared. Representative sections are selected for histomorphometric assessment of bone formation or bone resorption. Bone changes are measured on sections cut 200 μm apart. Osteoblasts and osteoclasts are identified by their distinctive morphology.
Selected compounds and appropriate controls were assayed in vitro (ex vivo) for bone formation activity (described above in “Techniques for Neonatal Mouse Calvaria Assay (in vitro)). Histomorphometrical assessments of ex vivo calvaria were carried out using an OsteoMetrics bone morphometry measurement program, according to the manufacturer's instructions. Measurements were determined using either a 10- or 20-fold objective with a standard point counting eyepiece graticule.
New bone formation was determined (using a 10× objective) by measuring the new bone area formed in one field in 3 representative sections of each bone (4 bones per group). Each measurement was carried out ½ field distance from the end of the suture. Both total bone and old bone area were measured. Data were expressed as new bone area in μm^2.
Osteoblast numbers are determined by point counting. The number of osteoblast cells lining the bone surface on both sides of the bone are counted in one field using a 20× objective. Data are expressed as osteoblast numbers/mm of bone surface. […]

[3] = system: hair follicles of skin explants; assay: Cultured skin explants from 5 day old mice, hair follicle diameter and elongation (Example 11); assay type: cell-based, C3H/HeS1c mice; conditions: 72 hours
Description: Cultured skin explants from 5 day old mice cultured for 72 hours were treated with proteasome inhibitors, non-proteasomal proteases and non-proteasomal inhibitors of NF-κB and effects on hair follicle diameter and follicle elongation were determined according to the method of Kamiya, T., et al., J Derm Sci (1998) 17:54-60. Skin slices from the dorsal skin of 5 day old C3H/HeS1c mice were cultured in 1 ml of αMEM and 0.1% BSA for 72 hours and then assessed for changes in hair follicle diameter and hair elongation under an inverted microscope, using image analysis. […] Thus, the chymotrypsin-like activity of the proteasome is the catalytic component of the proteasome that is responsible for the effects of these compounds on hair follicle differentiation and hair growth. Only proteasome inhibitors had discernable effects on these parameters.

[4] = system: hair follicles; assay: Induction of anagen in hair follicles in vivo (Example 12); set-up: species or system C57 black mice; conditions: for hair follicle differentiation in vivo: examined 16 days later
Description: Inhibitors of the proteasomal chymotrypsin-like activity were treated for their capacity to induce transit of hair follicles into anagen in vivo in C57 black mice eight weeks of age.

[5] = system: hair follicles of skin explants; assay: Skin explants from mice during telogen (Example 16); assay type: cell-based; conditions: 72 hours
Excerpt: In the untreated control explants, the follicles were few and small.

[6] = Mus musculus, calvarial assay in vitro

CC(=O)N[C@@H](CSC(=O)[C@]1([C@@H](O)C(C)C)NC(=O)[C@H](C)[C@@H]1O)C(=O)O [Lactacystin, lactacystin]
number of hair follicles ([1]; dose not given): stimulated an increase in the number of hair follicles | new bone formation in the in vitro calvarial assay [2]: showed new bone formation | EC50 [2, 6]: 1 µM | effect on hair follicle differentiation and hair growth ([3]; dose not given): effectively stimulated hair follicle differentiation and enhanced hair growth

CCC[C@@H](C=O)NC(=O)[C@H](CC(C)C)NC(=O)[C@H](CC(C)C)NC(=O)OCc1ccccc1 [MG-115, N-carbobenzoyl-Leu-Leu-Nva-CHO] (Cbz-Leu-Leu-[Nva]-aldehyde)
number of hair follicles ([1]; 10 mg/kg): stimulated an increase in the number of hair follicles | new bone formation in the in vitro calvarial assay [2]: positive results although less dramatic than those of simvastatin | EC50 [2, 6]: 1 µM

simvastatin
effect on hair follicles ([4]; injected locally into the subcutaneous tissue in sufficient concentrations to cause local periosteal bone formation): had no effect on hair follicles | new bone formation in the in vitro calvarial assay [2]: showed new bone formation | EC50 ([2]; calvarial assay in vitro): 0.2 µM

CC[C@H](C)[C@H](NC(=O)OCc1ccccc1)C(=O)N[C@@H](CCC(=O)OC(C)(C)C)C(=O)N[C@@H](C)C(=O)N[C@H](C=O)CC(C)C [PSI, N-carbobenzoyl-Ile-Glu-(OtBu)-Ala-Leu-CHO] (Cbz-IE(OtBu)AL-aldehyde)
number of hair follicles versus control mice ([1]; 5mg/kg/day injected three times a day for 5 days over the calvaria, sacrificed sixteen days later): strikingly large increase in the number of hair follicles | hair follicle differentiation in vivo ([4]; 5 mg/kg/day subcutaneously in the scalp daily for 5 days): increased hair follicle differentiation in vivo | hair follicle diameter and follicle elongation ([5]; 50 nM): obvious increase in hair follicle diameter, and follicle elongation | inducing bone formation compared with BMP-2 and bFGF [2]: as good as, or better than, BMP-2 and bFGF | EC50 [2, 6]: 0.03 µM | effect on hair follicle differentiation and hair growth ([3]; 12.5 nM): effectively stimulated hair follicle differentiation and enhanced hair growth

CC[C@H](C)[C@H](NC(=O)[C@H]([C@@H](C)CC)N(C)C(C)=O)C(=O)N[C@H](C(=O)N[C@@H](CC(C)C)C(=O)[C@@]1(C)CO1)[C@@H](C)O [Epoxomicin]
hair follicle differentiation in vivo ([4]; dose not given, subcutaneously in the scalp daily for 5 days): increased hair follicle differentiation in vivo | hair follicle diameter and follicle elongation ([5]; 25 nM): obvious increase in hair follicle diameter, and follicle elongation | effective in concentrations as low as [3]: 12.5 nM

CC(C)C[C@@H](C=O)NC(=O)[C@@H](CC(C)C)NC(=O)[C@H](CC(C)C)NC(=O)OCc1ccccc1 [MG-132, N-carbobenzoyl-Leu-Leu-Leu-CHO] (Cbz-Leu-[dL]-Leu-aldehyde)
number of hair follicles ([1]; 10 mg/kg): stimulated an increase in the number of hair follicles | new bone formation in the in vitro calvarial assay [2]: showed new bone formation | EC50 ([2]; Mus musculus): 0.5 µM | effect on hair follicle differentiation and hair growth ([3]; 0.5 μM): effectively stimulated hair follicle differentiation and enhanced hair growth
